# Results reported in US9707234B2, “Spirocyclic hetercycle compounds useful as HIV integrase inhibitors” (MERCK SHARP & DOHME CORP., priority 2013, dated 2017).
# Where two headings read alike, the source gives them in different places.
# Tested on: HIV-1 (H9IIIB or NL4-3 virus) replication in MT4-GFP cells
# Assay: microbe, parasite or virus in culture
# Type: cell-based
# Settings: inhibition of reproductive ratio R0, 48-72 h post-infection
# [1] = Human immunodeficiency virus 1, NL43, MT4-GFP cells infected with HIV-1, 100% normal human serum, read-out: ViKinG IP (nM) with 100% NHS
# [2] = Human immunodeficiency virus 1, NL43, MT4-GFP cells infected with HIV-1, serum free conditions (0% NHS), read-out: ViKinG IP (nM) with 0% NHS
# [3] = MT4-GFP cells infected with HIV-1, 100% normal human serum, read-out: ViKinG IP (nM) with 100% NHS
# [4] = MT4-GFP cells infected with HIV-1, serum free conditions (0% NHS), read-out: ViKinG IP (nM) with 0% NHS
# [5] = Human immunodeficiency virus 1, NL43, MT4-GFP cells infected with HIV-1, 10% normal human serum, read-out: ViKinG IP (nM) with 10% NHS
SMILES,IC50 [1] [nM],IC50 [2] [nM],IC50 [3] [nM],IC50 [4] [nM],IC50 [5] [nM]
CCN1C(=O)c2c(O)c(=O)c(-c3nnc(Cc4ccc(F)cc4F)s3)cn2N(C)C12CCCOC2 (stereo not shown) [Compound 37],456,5.3,,,
CN1C(=O)c2c(O)c(=O)c(-c3nnc(Cc4ccc(F)cc4F)s3)cn2N(C)C12CCN(C(N)=O)CC2 [Compound 29],2080,89.1,,,
"CCOCCN1C(=O)c2c(O)c(=O)c(C(=O)NCc3ccc(F)cc3F)cn2N(C)C12CCOC2 (single isomer, unassigned) [Compound 126]",,,455,1.3,
"CN1C(=O)c2c(O)c(=O)c(C(=O)NCc3c(F)cc(F)cc3F)cn2N(C)C12CCOC2 (single isomer, unassigned) [Compound 105]",37,0.8,,,
"CCOP(=O)(CCN1n2cc(C(=O)NCc3ccc(F)cc3F)c(=O)c(O)c2C(=O)N(C)C12CCOC2)OCC (single isomer, unassigned) [Compound 160]",,,46,,
CN1C(=O)c2c(O)c(=O)c(C(=O)NCc3ccc(F)cc3F)cn2CC12COC2 [Compound 68],134,7.6,,,
CCOCCN1C(=O)c2c(O)c(=O)c(C(=O)NCc3ccc(F)cc3F)cn2N(C)C12COC2 [Compound 146],485,10.9,,,
CCN1C(=O)c2c(O)c(=O)c(-c3nnc(Cc4ccc(F)cc4)s3)cn2N(C)C12CCN(C(=O)OCc1ccccc1)CC2 [Compound 11],359,,,,31
"CCOCCN1C(=O)c2c(O)c(=O)c(C(=O)NCc3ccc(F)cc3F)cn2N(C)C12CCOC2 (single isomer, unassigned) [Compound 125]",257,0.8,,,
"CN1C(=O)c2c(O)c(=O)c(C(=O)NCc3c(F)cc(F)cc3F)cn2CC12CCOC2 (single isomer, unassigned) [Compound 63]",17,1.9,,,
"CC1OCCC12N(C)C(=O)c1c(O)c(=O)c(C(=O)NCc3cccc(Cl)c3F)cn1N2C (single isomer, unassigned) [Compound 138]",,,134,0.6,
CCN1C(=O)c2c(O)c(=O)c(-c3nnc(Cc4ccc(F)cc4F)s3)cn2N(C)C12CCN(C(C)=O)CC2 [Compound 10],1500,,,,57
"COCCN1C(=O)c2c(O)c(=O)c(C(=O)NCc3ccc(F)c(F)c3F)cn2CC12CCOC2 (single isomer, unassigned) [Compound 72]",,,290,4.6,
CC(=O)N1CCC2(CC1)N(C)C(=O)c1c(O)c(=O)c(-c3nnc(Cc4ccc(F)cc4F)s3)cn1N2C [Compound 23],,,,,100
COCCN1C(=O)c2c(O)c(=O)c(C(=O)NCc3ccc(F)cc3F)cn2CC12CCOCC2 [Compound 42],234,2.4,,,
CN1C(=O)c2c(O)c(=O)c(-c3nnc(Cc4ccc(F)cc4F)s3)cn2CC12CCOC2 (stereo not shown) [Compound 101],70,4.6,,,
"CCN1C(=O)c2c(O)c(=O)c(C(=O)NCc3ccc(F)cc3F)cn2N(C)C12CCOC2 (single isomer, unassigned) [Compound 119]",163,1.2,,,11
"CN1C(=O)c2c(O)c(=O)c(C(=O)NCc3ccc(F)c(Cl)c3)cn2CC12CCOC2 (single isomer, unassigned) [Compound 62]",,,72,3.1,
"CN1C(=O)c2c(O)c(=O)c(C(=O)NCc3ccc(F)c(Cl)c3F)cn2N(C)C12CCOC2 (single isomer, unassigned) [Compound 117]",,0.5,246,,
"CN1C(=O)c2c(O)c(=O)c(C(=O)NCc3ccc(F)cc3F)cn2N(Cc2ccccc2)C12CCOC2 (single isomer, unassigned) [Compound 162]",,,72,,
"CCN1C(=O)c2c(O)c(=O)c(C(=O)NCc3ccc(F)cc3F)cn2N(C)C12CCOC2 (single isomer, unassigned) [Compound 120]",,,266,2.1,
"CCOC(=O)N1CCC2(C1)N(CC)C(=O)c1c(O)c(=O)c(C(=O)NCc3ccc(F)cc3F)cn1N2C (single isomer, unassigned) [Compound 139]",,1.5,247,,
"COCCN1C(=O)c2c(O)c(=O)c(C(=O)NCc3ccc(F)cc3F)cn2N(C)C12CCOC2 (single isomer, unassigned) [Compound 121]",,1.8,575,,39
CCN1C(=O)c2c(O)c(=O)c(C(=O)NCc3ccc(F)cc3F)cn2N(C)C12CCNCC2 [Compound 173],52,3.2,,,
"COCCN1C(=O)c2c(O)c(=O)c(C(=O)NCc3ccc(F)cc3F)cn2CC12CCCOC2 (single isomer, unassigned) [Compound 84]",,,1960,4.5,
"COCCN1C(=O)c2c(O)c(=O)c(C(=O)NCc3ccc(F)cc3F)cn2CC12CCCOC2 (single isomer, unassigned) [Compound 83]",3050,7.8,,,

SMILES,IC50 [1] [nM],IC50 [2] [nM],IC50 [3] [nM],IC50 [4] [nM],IC50 [5] [nM]
"CN1C(=O)c2c(O)c(=O)c(C(=O)NCc3ccc(F)cc3F)cn2N(CC2CC2)C12CCOC2 (single isomer, unassigned) [Compound 152]",,,174,0.7,
"COCN1C(=O)c2c(O)c(=O)c(C(=O)NCc3ccc(F)cc3F)cn2CC12CCOC2 (single isomer, unassigned) [Compound 75]",,1.8,559,,
CCOP(=O)(CCCN1n2cc(C(=O)NCc3ccc(F)cc3F)c(=O)c(O)c2C(=O)N(C)C12CCOC2)OCC (racemic) [Compound 161],227,,,,
"CN1C(=O)c2c(O)c(=O)c(C(=O)NCc3cccc(Cl)c3F)cn2N(C)C12COCC2(C)C (single isomer, unassigned) [Compound 128]",,,131,0.7,
CN1C(=O)c2c(O)c(=O)c(C(=O)NCc3ccc(F)c(Cl)c3F)cn2CC12CCOC2 (stereo not shown) [Compound 55],30,0.6,,,
CN1C(=O)c2c(O)c(=O)c(C(=O)NCc3ccc(F)cc3F)cn2N(CCO)C12CCOC2 (stereo not shown) [Compound 148],,,33,1.2,
CCOC(=O)N1CCC2(CC1)N(CC)C(=O)c1c(O)c(=O)c(-c3nnc(Cc4ccc(F)cc4)s3)cn1N2C [Compound 5],250,16.4,,,22
CN1C(=O)c2c(O)c(=O)c(-c3nnc(Cc4ccc(F)cc4F)s3)cn2N(C)C12CCOCC2 [Compound 22],731,,,,47
"CCN1C(=O)c2c(O)c(=O)c(C(=O)NCc3ccc(F)cc3F)cn2N(C)C12CCNC2 (single isomer, unassigned) [Compound 171]",88,1.8,,,
CCOC(=O)N1CCC2(CC1)N(C)C(=O)c1c(O)c(=O)c(-c3nnc(Cc4ccc(F)cc4)s3)cn1N2C [Compound 18],254,,,,13
CCN1C(=O)c2c(O)c(=O)c(C(=O)NCc3ccc(F)cc3F)cn2CC12COC2 [Compound 69],452,3.5,,,
"CC1OCCC12N(C)C(=O)c1c(O)c(=O)c(C(=O)NCc3ccc(F)cc3F)cn1N2C (single isomer, unassigned) [Compound 134]",,,65,0.9,
COCCN1C(=O)c2c(O)c(=O)c(C(=O)NCc3ccc(F)cc3F)cn2CC12CCNCC2 [Compound 87],98,16,,,
"COCCCN1n2cc(C(=O)NCc3ccc(F)cc3F)c(=O)c(O)c2C(=O)N(C)C12CCOC2 (single isomer, unassigned) [Compound 158]",,,168,1,
CN1C(=O)c2c(O)c(=O)c(-c3nnc(Cc4ccc(F)cc4F)s3)cn2N(C)C12CCN(S(=O)(=O)N(C)C)CC2 [Compound 24],86,11.9,,,6
CCOCCN1C(=O)c2c(O)c(=O)c(C(=O)NCc3ccc(F)cc3F)cn2CC12CCOCC2 [Compound 44],57,5.8,,,
"COCCCN1C(=O)c2c(O)c(=O)c(C(=O)NCc3ccc(F)cc3F)cn2CC12CCOC2 (single isomer, unassigned) [Compound 73]",30,1.8,,,
"CN1C(=O)c2c(O)c(=O)c(C(=O)NCc3cccc(Cl)c3F)cn2CC12CCOC2 (single isomer, unassigned) [Compound 66]",,,40,1.5,
"CCOCCN1C(=O)c2c(O)c(=O)c(C(=O)NCc3ccc(F)cc3F)cn2CC12CCOC2 (single isomer, unassigned) [Compound 78]",,,55,2.3,
"CN1C(=O)c2c(O)c(=O)c(C(=O)NCc3ccc(F)cc3F)cn2N(C)C12COCC2(C)C (single isomer, unassigned) [Compound 129]",,,73,0.6,
"CN1C(=O)c2c(O)c(=O)c(C(=O)NCc3ccc(F)c(Cl)c3F)cn2CC12CCOC2 (single isomer, unassigned) [Compound 56]",100,1.2,,,
"COCCN1C(=O)c2c(O)c(=O)c(C(=O)NCc3ccc(F)cc3)cn2CC12CCOC2 (single isomer, unassigned) [Compound 51]",196,4.8,,,
CCCN1C(=O)c2c(O)c(=O)c(-c3nnc(Cc4ccc(F)cc4F)s3)cn2N(C)C12CCN(C(=O)OCC)CC2 [Compound 7],148,29.9,,,58
CCN1C(=O)c2c(O)c(=O)c(-c3nnc(Cc4ccc(F)cc4)s3)cn2N(C)C12CCNCC2 [Compound 33],89,,,,49
"CCOCCN1C(=O)c2c(O)c(=O)c(C(=O)NCc3cccc(Cl)c3F)cn2CC12CCOC2 (single isomer, unassigned) [Compound 79]",,2.3,603,,
